The values that follow are results of earlier work, collected in patent US20220056157A1, “PROCESS FOR FRACTIONATING AN ESTERIFIED CELLULOSE ETHER” (DOW GLOBAL TECHNOLOGIES LLC, priority 2015, published 2022).

≈ marks a conversion by molar mass, not a printed value.

On to `CCOC(=O)N1c2ccc(C(F)(F)F)cc2[C@@H](N(Cc2cc(C(F)(F)F)cc(C(F)(F)F)c2)C(=O)OC)C[C@H]1CC` [Torcetrapib], for which the water solubility is 0.13 ng/mL (≈ 0.216 nM).
